Results as given in article PMC9820430, “New Affordable Methods for Large-Scale Isolation of Major Olive Secoiridoids and Systematic Comparative Study of Their Antiproliferative/Cytotoxic Effect on Multiple Cancer Cell Lines of Different Cancer Origins” (International Journal of Molecular Sciences, 2022).
Like-named read-outs stand apart in the source and are kept apart here.

How the values were obtained:
A2058 = assay: ATP-based luminescence cell viability assay (ViaLight), 72 h; parameters: species or system human; settings: for EC50: Homo sapiens, A2058, 72 h, A2058, 72 h treatment, read-out: EC50 Values of Olive Oil Polyphenols
Method: (§1) The antiproliferative/cytotoxic effects of the selected OOPs on each cell line were assessed by measuring the cellular ATP levels after 72 h treatments using an ATP-based luminescence assay. This assay, initially developed as a tumor chemosensitivity assay, has shown considerable promise as a general in vitro toxicity assay due to its high sensitivity that allows the detection of a small number of cells. Consequently, it can be applied to both cancer cell lines and primary tissue cells. […] The EC50 values were calculated by nonlinear regression (curve fit) using a sigmoidal dose–response equation (Figure 2A and Figure S2).
(§2) The OOPs tested in this study were first dissolved in an appropriate DMSO volume such as to prepare a final stock solution of 50 mM, which was further used to prepare various compound concentrations in DMSO-based solutions. The final DMSO concentration in the cell culture was maintained constant in all treated groups of any given experiment and never exceeded the value of 0.2% (v/v). For the treatment experiments, cells were plated in 96-well culture plates, in 100 μL of complete medium at a seeding density of 5000–10,000 cells/well—depending on cells’ size and doubling time—and were allowed to adhere overnight (~16 h). The next day, 150 μL of complete medium was added to each well and the cells were treated with various concentrations of OOPs. Each concentration was tested in triplicate and was repeated 2–3 times. To prepare the final concentration solutions, 0.5 μL of a 500× stock of each tested compound in DMSO was added directly into each well in a final volume of 250 μL culture medium and was gently mixed by pipetting. Control wells were prepared under the same experimental conditions by adding only DMSO at a final concentration of 0.2% (v/v). Compounds were not renewed during the entire period of cell exposure. All cells were cultured at 37 °C in a 5% (v/v) CO2 for 24, 48 or 72 h.
(§3) Briefly, after the treatment with OOPs, the adapted medium was removed from the dish wells and the cells were washed twice with medium without FBS. Then, the C-lysis (LT27-076) was diluted in PBS (1:2) and a volume of 50 μL was added to each well. Cells were incubated with C-lysis for at least 10 min. Finally, an equal volume of lysed cells from each well and ATP monitoring reagent (AMR; LT27-212) was transferred to the wells of a white-walled illuminometer plate (Greiner bio-one; 655074). Cell viability was quantified by measuring luminescence using a multi-mode microplate reader Safire^2 Tecan (software Magellan V6.00 STD.2PC WIN.20000/XP).

AGS [1] = assay: as above; parameters: species or system human; settings: Homo sapiens, 72 h, 72 h treatment, read-out: EC50 Values of Olive Oil Polyphenols
Method: as §1, §2, §3

Caco-2 = assay: as above; parameters: species or system human; settings: 72 h treatment, read-out: EC50 Values of Olive Oil Polyphenols
Method: as §1, §2, §3

H1437 = assay: as above; parameters: species or system human; settings: for EC50: Homo sapiens, NCI-H1437, 72 h, H1437, 72 h treatment, read-out: EC50 Values of Olive Oil Polyphenols
Method: as §1, §2, §3

HT-29 = assay: as above; parameters: species or system human; settings: Homo sapiens, HT-29, 72 h, 72 h treatment, read-out: EC50 Values of Olive Oil Polyphenols
Method: as §1, §2, §3

HaCaT = assay: as above; parameters: species or system human; settings: Homo sapiens, HaCaT, 72 h, HaCaT (immortal keratinocytes); 72 h treatment; read-out: EC50 Values of Olive Oil Polyphenols
Method: as §1, §2, §3

Hela = assay: as above; parameters: species or system human; settings: Homo sapiens, HeLa, 72 h, 72 h treatment, read-out: EC50 Values of Olive Oil Polyphenols
Method: as §1, §2, §3

HepG-2 = assay: as above; parameters: species or system human; settings: Homo sapiens, HepG2, 72 h, 72 h treatment, read-out: EC50 Values of Olive Oil Polyphenols
Method: as §1, §2, §3

Huh-7 = assay: as above; parameters: species or system human; settings: Homo sapiens, Huh-7, 72 h, 72 h treatment, read-out: EC50 Values of Olive Oil Polyphenols
Method: as §1, §2, §3

MCF-7 = assay: as above; parameters: species or system human; settings: 72 h treatment, read-out: EC50 Values of Olive Oil Polyphenols
Method: as §1, §2, §3

MDA-MB 231 = assay: as above; parameters: species or system human; settings: for EC50: MDA-MB 231, 72 h treatment, read-out: EC50 Values of Olive Oil Polyphenols
Method: as §1, §2, §3

ME-180 = assay: as above; parameters: species or system human; settings: Homo sapiens, ME-180, 72 h, 72 h treatment, read-out: EC50 Values of Olive Oil Polyphenols
Method: as §1, §2, §3

MKN-45 = assay: as above; parameters: species or system human; settings: Homo sapiens, MKN-45, 72 h, 72 h treatment, read-out: EC50 Values of Olive Oil Polyphenols
Method: as §1, §2, §3

MRC-5 = assay: as above; parameters: species or system human; settings: Homo sapiens, MRC5; MRC-5 (non cancer, lung); 72 h treatment; read-out: EC50 Values of Olive Oil Polyphenols
Method: as §1, §2, §3

PANC-1 = assay: as above; parameters: species or system human; settings: Homo sapiens, PANC-1, 72 h, 72 h treatment, read-out: EC50 Values of Olive Oil Polyphenols
Method: as §1, §2, §3

SK-BR-3 = assay: as above; parameters: species or system human; settings: for EC50: Homo sapiens, SK-BR-3, 72 h, SK-BR-3, 72 h treatment, read-out: EC50 Values of Olive Oil Polyphenols
Method: as §1, §2, §3

SK-MEL-28 = assay: as above; parameters: species or system human; settings: for EC50: SK-MEL-28, 72 h treatment, read-out: EC50 Values of Olive Oil Polyphenols
Method: as §1, §2, §3

AGS [2] = assay: ATP assay under 1% (v/v) O2 versus 20% (v/v) O2, 72 h; type: cell-based, human; settings: 1% (v/v) O2 vs 20% (v/v) O2
Method: The effects of drugs on cancer cell lines are usually tested under atmospheric conditions (20% (v/v) O2). However, the O2 content in tissues (normoxia) and solid tumors (hypoxia) is ≤ 5% (v/v). In some tumors (i.e., pancreatic tumors) the % O2 is even ≤ 1% (v/v). This affects cell metabolism and signaling pathways which depend on the hypoxia-induced Factor 1A (HIF1A) and it could affect the activity of certain drugs. […] The effects of these three OOPs were tested on the MDA-MB 231, SK-BR-3 and MCF-7 breast cancer and on the AGS stomach cancer cell lines.
Figure 6 Effect of O2 concentration on the antiproliferative/cytotoxic effect of OOPs. […] Cell viability was determined on (A) AGS, (B) MDA-MB 231, (C) MCF-7 and (D) SK-BR-3 cell lines using ATP-based luminescence assay. The results presented are from two independent experiments performed in triplicate. Bar graphs represent the mean cell count ± SE in each treatment group normalized to the control group (i.e., cells treated only with 0.2% (v/v) DMSO). * p < 0.05; ** p ≤ 0.01; *** p ≤ 0.001 (t-test) comparing the two different conditions.

MCF-10A cells = tested on: MCF-10A cells; parameters: method as in PMID 23403296, PMID 33117773, PMID 24849787, PMID 30964898; settings: cited from earlier work
H1299 = assay: ATP-based luminescence cell viability assay (ViaLight), 72 h; parameters: species or system human
Method: as §1, §2, §3

| Structure (SMILES) | EC50 (A2058) [µM] | EC50 (AGS [1]) [µM] | EC50 (Caco-2; Homo sapiens, Caco-2, 72 h) [µM] | EC50 (H1437) [µM] | EC50 (HT-29) [µM] | EC50 (HaCaT) [µM] | EC50 (Hela) [µM] | EC50 (HepG-2) [µM] | EC50 (Huh-7) [µM] | EC50 (MCF-7; Homo sapiens, MCF7, 72 h) [µM] | EC50 (MDA-MB 231; Homo sapiens, MDA-MB-231, 72 h) [µM] | EC50 (ME-180) [µM] | EC50 (MKN-45) [µM] | EC50 (MRC-5) [µM] | EC50 (PANC-1) [µM] | EC50 (SK-BR-3) [µM] | EC50 (SK-MEL-28; Homo sapiens, SK-MEL-28, 72 h) [µM] | bioactivity under hypoxia versus atmospheric O2 (AGS [2]) | further results |
| --- | --- | --- | --- | --- | --- | --- | --- | --- | --- | --- | --- | --- | --- | --- | --- | --- | --- | --- | --- |
| C/C=C(/C=O)[C@@H](CC=O)CC(=O)OCCc1ccc(O)cc1 [compound 1, oleocanthal] | 18.4 ± 0.4 | 18.3 ± 1 | 33.4 | 26.5 ± 1.1 | 26.3 ± 2 | 19.3 ± 0.3 | 44.6 ± 0.4 | 40 ± 5.3 | 20.2 ± 1.5 | > 25 | 10.4 ± 0.8 | 9.1 ± 0.3 | 10.2 ± 0.4 | 2 ± 0.1 | 14.9 ± 0.9 | 13 ± 0.6 | 10.4 ± 1.1 | similar | EC50 (Caco-2): 34.3 ± 4.1 µM; EC50 (MCF-7): 24.6 ± 2.6 µM; sensitivity of cells to treatment (MCF-10A cells; 40 μM): resistant |
| COC(=O)C1=COC(C)[C@@H](C=O)[C@@H]1CC(=O)OCCc1ccc(O)c(O)c1 (mixture of isomers) [3a,b, oleuropein aglycone] | 37.2 ± 0.8 | 35.9 ± 1.4 | 24.5 ± 0.9 | 11.9 ± 0.6 | 50.1 ± 1.5 | 36.6 | 27.6 ± 0.3 | 17.7 ± 0.5 | 13 ± 0.1 | 32.2 ± 1.1 | 24.5 | 25.5 ± 0.5 | 16.4 ± 1.6 | 8.6 ± 0.4 | 19.1 ± 0.6 | 17.7 ± 1.4 | 22.2 | similar | Selectivity index SI (HaCaT) (A2058; EC50 HaCaT / EC50 A2058): 1.0; Selectivity index SI (NHDF) (A2058; EC50 NHDF / EC50 A2058): 1.1; Selectivity index SI (MRC-5) (H1299; EC50 MRC-5 / EC50 H1299): 0.4; EC50 (H1299; Homo sapiens, NCI-H1299, H1299, 72 h treatment, read-out: EC50 Values of Olive Oil Polyphenols): 24.1 ± 0.9 µM; Selectivity index SI (MRC-5) (H1437; EC50 MRC-5 / EC50 H1437): 0.7; Selectivity index SI (MCF 10A) (MDA-MB 231; EC50 MCF 10A / EC50 MDA-MB 231): 0.4; EC50 (MDA-MB 231): 25.4 ± 0.8 µM; Selectivity index SI (MCF 10A) (SK-BR-3; EC50 MCF 10A / EC50 SK-BR-3): 0.5; Selectivity index SI (HaCaT) (SK-MEL-28; EC50 HaCaT / EC50 SK-MEL-28): 2.4; Selectivity index SI (NHDF) (SK-MEL-28; EC50 NHDF / EC50 SK-MEL-28): 2.8; EC50 (SK-MEL-28): 15.1 ± 0.9 µM; sensitivity of cells to treatment (MCF-10A cells; 150 μM): resistant |
